Assay results: US12630600B2 (MEDIMMUNE LIMITED, priority 2022, dated 2026)
Starred links: 1 amine or outer side, 2 acyl side, 3 side chain; linkers in the order of their positions; H or OH if unused. Non-standard residues stand in square brackets, D forms with d. Residues, ends and D or L forms follow the SMILES beside them. Groups on a side chain read outwards from the residue. *: point of attachment. C18 diacid = O=C(O)CCCCCCCCCCCCCCCCC(=O)*; γGlu = O=C(O)[C@H](CCC(=O)[*:2])N[*:1]; αMeF = C[C@](N)(Cc1ccccc1)C(=O)O; AEEA = NCCOCCOCC(=O)O; Aib = CC(C)(N)C(=O)O

target: T1, human GLP-1 receptor (hGLP-1R) (Homo sapiens, UniProt P43220); test: cAMP production (HTRF) in CHO cells expressing human GLP-1 receptor; assay type: cell-based; conditions: Table 8; % GLP-1R activity relative to GLP-1 / % GlucR activity relative to glucagon
T1 construct: expressed in transfected cells; host or cells: CHO
Procedure: Cells were re-suspended in assay buffer at a batch-dependent optimized concentration (typically hGLP-1R cells at 1×10^5 cells/mL, hGCGR cells at 2×10^5 cells/mL).
Cells were added to the assay plate using a multidrop dispenser and incubated at room temperature for 30 minutes before measuring the cAMP level using a cAMP dynamic 2 homogeneous time resolved Fluorescence (HTRF) kit (Cisbio Bioassays #62AM4PEJ) following the two-step protocol as per manufacturer's recommendations. In brief, anti-cAMP cryptate (donor fluorophore) and cAMP-d2 (acceptor fluorophore) were made up separately by diluting each 1 in 20 in conjugate and lysis buffer provided in the kit. Anti-cAMP cryptate was added to all wells of the assay plate, followed by cAMP-d2 added to all wells except non-specific binding (NSB) wells (to which conjugate and lysis buffer was added).
Data was transformed to % Delta F as described in the manufacturer's guidelines and analyzed by 4-parameter logistic fit to determine EC50 values.

T1 sequence (P43220 24-463): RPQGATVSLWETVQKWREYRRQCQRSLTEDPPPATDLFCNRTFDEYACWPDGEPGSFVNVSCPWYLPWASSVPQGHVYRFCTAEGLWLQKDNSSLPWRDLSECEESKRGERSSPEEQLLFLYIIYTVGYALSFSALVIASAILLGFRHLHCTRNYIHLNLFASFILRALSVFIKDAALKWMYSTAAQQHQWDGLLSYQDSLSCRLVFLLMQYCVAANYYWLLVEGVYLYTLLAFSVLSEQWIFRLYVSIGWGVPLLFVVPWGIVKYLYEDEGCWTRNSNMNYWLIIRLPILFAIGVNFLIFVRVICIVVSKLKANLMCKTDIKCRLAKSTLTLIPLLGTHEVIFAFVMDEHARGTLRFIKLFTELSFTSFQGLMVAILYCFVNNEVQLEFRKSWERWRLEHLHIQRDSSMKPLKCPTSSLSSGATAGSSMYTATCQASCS

% Relative Potency Ratio	Structure (SMILES)
2.0	CC[C@H](C)[C@H](NC(=O)[C@H](CO)NC(=O)[C@H](CCCCNC(=O)COCCOCCNC(=O)COCCOCCNC(=O)CC[C@H](NC(=O)CC[C@H](NC(=O)CCCCCCCCCCCCCCCCC(=O)O)C(=O)O)C(=O)O)NC(=O)[C@@H](NC(=O)[C@](C)(Cc1ccccc1)NC(=O)[C@H](CC(=O)O)NC(=O)[C@H](CCC(N)=O)NC(=O)[C@H](C)NC(=O)[C@H](C)NC(=O)[C@H](CCCNC(=N)N)NC(=O)[C@H](CO)NC(=O)[C@H](CC(=O)O)NC(=O)[C@H](CC(C)C)NC(=O)[C@](C)(Cc1ccccc1)NC(=O)[C@H](CCCCN)NC(=O)[C@H](CO)NC(=O)[C@@H](NC(=O)[C@H](CC(=O)O)NC(=O)[C@H](CO)NC(=O)[C@@H](NC(=O)[C@](C)(Cc1ccccc1)NC(=O)[C@H](CO)NC(=O)CNC(=O)[C@H](Cc1c[nH]cn1)NC(=O)C(C)(C)NC(=O)[C@@H](N)Cc1c[nH]cn1)[C@@H](C)O)C(C)C)C(C)C)C(=O)N[C@@H](C)C(=O)N[C@@H](CC(N)=O)C(=O)N[C@H](C(N)=O)[C@@H](C)O [Peptide 378] (H-H[Aib]HGS[αMeF]TSDVSK[αMeF]LDSRAAQD[αMeF]VK([AEEA-AEEA-γGlu-γGlu-C18 diacid])SIANT-NH2; N-terminus assumed)
2.6	CC[C@H](C)[C@H](NC(=O)[C@H](Cc1c[nH]c2ccccc12)NC(=O)[C@H](CCCCNC(=O)COCCOCCNC(=O)COCCOCCNC(=O)CC[C@H](NC(=O)CC[C@H](NC(=O)CCCCCCCCCCCCCCCCC(=O)O)C(=O)O)C(=O)O)NC(=O)[C@@H](NC(=O)[C@H](Cc1ccccc1)NC(=O)[C@H](CC(=O)O)NC(=O)[C@H](CCC(N)=O)NC(=O)[C@H](C)NC(=O)[C@H](C)NC(=O)[C@H](CCCNC(=N)N)NC(=O)[C@H](CO)NC(=O)[C@H](CC(=O)O)NC(=O)[C@H](CC(C)C)NC(=O)[C@](C)(Cc1ccccc1)NC(=O)[C@H](CCCCN)NC(=O)[C@H](CO)NC(=O)[C@@H](NC(=O)[C@H](CC(=O)O)NC(=O)[C@H](CO)NC(=O)[C@@H](NC(=O)[C@](C)(Cc1ccccc1)NC(=O)[C@H](CO)NC(=O)CNC(=O)[C@H](Cc1c[nH]cn1)NC(=O)C(C)(C)NC(=O)[C@@H](N)Cc1c[nH]cn1)[C@@H](C)O)C(C)C)C(C)C)C(=O)N[C@@H](C)C(=O)N[C@@H](CC(N)=O)C(=O)N[C@H](C(=O)NCC(=O)NCC(N)=O)[C@@H](C)O [Peptide 364] (H-H[Aib]HGS[αMeF]TSDVSK[αMeF]LDSRAAQDFVK([AEEA-AEEA-γGlu-γGlu-C18 diacid])WIANTGG-NH2; N-terminus assumed)

Structure (SMILES)	% Relative Potency Ratio
CC[C@H](C)[C@H](NC(=O)[C@H](Cc1c[nH]c2ccccc12)NC(=O)[C@H](CCCCNC(=O)COCCOCCNC(=O)COCCOCCNC(=O)CC[C@H](NC(=O)CCCCCCCCCCCCCCCCC(=O)O)C(=O)O)NC(=O)[C@@H](NC(=O)[C@H](Cc1ccccc1)NC(=O)[C@H](CC(=O)O)NC(=O)[C@H](CCC(N)=O)NC(=O)[C@H](C)NC(=O)[C@H](C)NC(=O)[C@H](CCC(N)=O)NC(=O)[C@H](CO)NC(=O)[C@H](CC(=O)O)NC(=O)[C@H](CC(C)C)NC(=O)[C@](C)(Cc1ccccc1)NC(=O)[C@H](CCCCN)NC(=O)[C@H](CO)NC(=O)[C@@H](NC(=O)[C@H](CC(=O)O)NC(=O)[C@H](CO)NC(=O)[C@@H](NC(=O)[C@](C)(Cc1ccccc1)NC(=O)[C@H](CO)NC(=O)CNC(=O)[C@H](CCC(N)=O)NC(=O)C(C)(C)NC(=O)[C@@H](N)Cc1c[nH]cn1)[C@@H](C)O)C(C)C)C(C)C)C(=O)N[C@@H](C)C(=O)N[C@@H](CC(N)=O)C(=O)N[C@H](C(N)=O)[C@@H](C)O [Peptide 348] (H-H[Aib]QGS[αMeF]TSDVSK[αMeF]LDSQAAQDFVK([AEEA-AEEA-γGlu-C18 diacid])WIANT-NH2; N-terminus assumed)	116.0
